Where “and” joins values, the source holds several entries; their conditions need not be identical. Equal entries are not always repeated. Toxic doses and inconclusive results are not listed. No stated cut-off is given here; in the data, active means T/C of 150% or more; inactive means T/C below 125%.
Test system: L1210 leukemia ip in BDF1 mice, survival T/C
Assay: NCI In Vivo Anticancer Drug Screen. Data for tumor model L1210 Leukemia (intraperitoneal) in B6D2F1 (BDF1) mice
Details: endpoint: mean survival time, higher = longer survival
Outline: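 Ratio derived from survival: compound-dosed mice over vehicle-dosed mice, all bearing a transplantable tumor.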

[1] = dose: 50.0 mg/kg/injection, schedule: Q01DX009 (ip), vehicle: saline with Tween-80
[2] = dose: 200.0 mg/kg/injection, schedule: Q01DX009 (ip), vehicle: saline with Tween-80
[3] = dose: 100.0 mg/kg/injection, schedule: Q04DX003 (ip), vehicle: Klucel (hydroxypropylcellulose) (HPC)
[4] = dose: 200.0 mg/kg/injection, schedule: Q04DX003 (ip), vehicle: Klucel (hydroxypropylcellulose) (HPC)
[5] = dose: 400.0 mg/kg/injection, schedule: Q04DX003 (ip), vehicle: Klucel (hydroxypropylcellulose) (HPC)
[6] = dose: 100.0 mg/kg/injection, schedule: Q01DX001 (ip), vehicle: Klucel (hydroxypropylcellulose) (HPC)
[7] = dose: 200.0 mg/kg/injection, schedule: Q01DX001 (ip), vehicle: Klucel (hydroxypropylcellulose) (HPC)
[8] = dose: 400.0 mg/kg/injection, schedule: Q01DX001 (ip), vehicle: Klucel (hydroxypropylcellulose) (HPC)
[9] = dose: 25.0 mg/kg/injection, schedule: Q01DX009 (ip), vehicle: saline
[10] = dose: 50.0 mg/kg/injection, schedule: Q01DX009 (ip), vehicle: saline
[11] = dose: 100.0 mg/kg/injection, schedule: Q01DX009 (ip), vehicle: saline with Tween-80
[12] = dose: 100.0 mg/kg/injection, schedule: Q01DX009 (ip), vehicle: saline
[13] = dose: 100.0 mg/kg/injection, schedule: Q04DX002 (ip), vehicle: saline with Tween-80
[14] = dose: 100.0 mg/kg/injection, schedule: Q04DX003 (ip), vehicle: saline with Tween-80
[15] = dose: 200.0 mg/kg/injection, schedule: Q01DX009 (ip), vehicle: saline
[16] = dose: 200.0 mg/kg/injection, schedule: Q04DX003 (ip), vehicle: saline with Tween-80
[17] = dose: 400.0 mg/kg/injection, schedule: Q01DX009 (ip), vehicle: saline with Tween-80
[18] = dose: 400.0 mg/kg/injection, schedule: Q04DX003 (ip), vehicle: saline with Tween-80
[19] = dose: 100.0 mg/kg/injection, schedule: Q04DX002 (ip), vehicle: Klucel (hydroxypropylcellulose) (HPC)
[20] = dose: 200.0 mg/kg/injection, schedule: Q04DX002 (ip), vehicle: Klucel (hydroxypropylcellulose) (HPC)
[21] = dose: 400.0 mg/kg/injection, schedule: Q04DX002 (ip), vehicle: Klucel (hydroxypropylcellulose) (HPC)
[22] = dose: 100.0 mg/kg/injection, schedule: Q04DX003 (ip), vehicle: saline
[23] = dose: 200.0 mg/kg/injection, schedule: Q04DX003 (ip), vehicle: saline
[24] = dose: 400.0 mg/kg/injection, schedule: Q01DX009 (ip), vehicle: saline
[25] = dose: 400.0 mg/kg/injection, schedule: Q04DX003 (ip), vehicle: saline

Measured: T/C

O=C(c1ccccc1)c1cc(-c2ccccc2)n(C2CCCCC2)c1
inactive: dose: 25.0 mg/kg/injection, schedule: Q01DX009 (ip), vehicle: saline with Tween-80 96 % of control and 120 % of control | [1] 94 % of control and 95 % of control and 98 % of control | [2] 91 % of control and 92 % of control

CCN(CC)C(=O)C1(C)CCCC2(C)c3cc(OC(C)=O)ccc3CCC12 (stereo not drawn)
inactive: dose: 100.0 mg/kg/injection, schedule: Q01DX009 (ip), vehicle: Klucel (hydroxypropylcellulose) (HPC) 92 % of control | [3] 108 % of control | dose: 200.0 mg/kg/injection, schedule: Q01DX009 (ip), vehicle: Klucel (hydroxypropylcellulose) (HPC) 87 % of control | [4] 100 % of control | [5] 100 % of control

COC(=O)c1cc(Cl)ccc1OCC(=O)O
inactive: [6] 90 % of control | [3] 102 % of control | [7] 93 % of control | [4] 101 % of control | [8] 90 % of control | [5] 107 % of control

CN(Cc1ccccc1)C(=O)NC1CCCCC1
inactive: [9] 100 % of control and 101 % of control | [10] 100 % of control and 101 % of control | [11] 102 % of control | [12] 97 % of control and 100 % of control | [13] 94 % of control and 96 % of control | [14] 101 % of control | [2] 94 % of control and 105 % of control | [15] 96 % of control and 97 % of control | dose: 200.0 mg/kg/injection, schedule: Q04DX002 (ip), vehicle: saline with Tween-80 96 % of control and 100 % of control | [16] 102 % of control | [17] 95 % of control and 105 % of control | dose: 400.0 mg/kg/injection, schedule: Q04DX002 (ip), vehicle: saline with Tween-80 100 % of control and 92 % of control | [18] 95 % of control

CCOC(=O)c1cnc(SC)nc1Nc1c(Br)cc(Br)cc1Br
inactive: dose: 12.5 mg/kg/injection, schedule: Q01DX009 (ip), vehicle: Klucel (hydroxypropylcellulose) (HPC) 102 % of control | dose: 12.5 mg/kg/injection, schedule: Q04DX003 (ip), vehicle: Klucel (hydroxypropylcellulose) (HPC) 97 % of control | dose: 25.0 mg/kg/injection, schedule: Q01DX009 (ip), vehicle: Klucel (hydroxypropylcellulose) (HPC) 102 % of control | dose: 25.0 mg/kg/injection, schedule: Q04DX003 (ip), vehicle: Klucel (hydroxypropylcellulose) (HPC) 94 % of control | dose: 50.0 mg/kg/injection, schedule: Q01DX009 (ip), vehicle: Klucel (hydroxypropylcellulose) (HPC) 105 % of control | dose: 50.0 mg/kg/injection, schedule: Q04DX003 (ip), vehicle: Klucel (hydroxypropylcellulose) (HPC) 103 % of control

COc1ccc(CC#N)cc1
inactive: dose: 2.5 mg/kg/injection, schedule: Q04DX002 (ip), vehicle: Klucel (hydroxypropylcellulose) (HPC) 103 % of control | dose: 5.0 mg/kg/injection, schedule: Q01DX009 (ip), vehicle: Klucel (hydroxypropylcellulose) (HPC) 91 % of control | dose: 5.0 mg/kg/injection, schedule: Q04DX002 (ip), vehicle: Klucel (hydroxypropylcellulose) (HPC) 98 % of control | dose: 10.0 mg/kg/injection, schedule: Q01DX009 (ip), vehicle: Klucel (hydroxypropylcellulose) (HPC) 89 % of control | dose: 10.0 mg/kg/injection, schedule: Q04DX002 (ip), vehicle: Klucel (hydroxypropylcellulose) (HPC) 98 % of control and 110 % of control | dose: 20.0 mg/kg/injection, schedule: Q01DX009 (ip), vehicle: Klucel (hydroxypropylcellulose) (HPC) 92 % of control

COC(=O)C1C2OC(C(Br)C2Br)C1C(=O)O (stereo not drawn)
inactive: [14] 100 % of control | [16] 98 % of control | [18] 96 % of control

CCOP(=O)(OCC)OCc1ccc(C)cc1
inactive: [14] 94 % of control | [16] 102 % of control | [18] 97 % of control

COc1cccc(CCNC(=O)CCC#N)c1
inactive: dose: 75.0 mg/kg/injection, schedule: Q01DX009 (ip), vehicle: saline 112 % of control | [3] 97 % of control | dose: 150.0 mg/kg/injection, schedule: Q01DX009 (ip), vehicle: saline 93 % of control | [4] 87 % of control | dose: 300.0 mg/kg/injection, schedule: Q01DX009 (ip), vehicle: saline 100 % of control | [5] 90 % of control

COc1cc2c(cc1O)C(OC)(OC)CCCC2
inactive: [1] 96 % of control | [11] 96 % of control | [2] 93 % of control

OC(COc1ccccc1)CN1CCN(c2ccccc2)CC1 (stereo not drawn)
inactive: [19] 98 % of control | [20] 102 % of control | [21] 95 % of control and 102 % of control

CC(N)(Cc1ccc(O)c(O)c1)C(=O)O (stereo not drawn)
inactive: [9] 109 % of control | dose: 25.0 mg/kg/injection, schedule: Q04DX003 (ip), vehicle: saline 103 % of control | [10] 101 % of control | dose: 50.0 mg/kg/injection, schedule: Q04DX003 (ip), vehicle: saline 95 % of control | [12] 105 % of control | [22] 103 % of control | [15] 111 % of control | [23] 106 % of control | [24] 117 % of control | [25] 103 % of control

O=[N+]([O-])C(c1ccccc1)C(C/C(=N/O)c1ccccc1)c1ccccc1 (stereo not drawn)
inactive: [19] 100 % of control | [20] 92 % of control | [21] 96 % of control

O=S(=O)(CC(Cl)c1ccccc1)c1ccc(F)cc1 (stereo not drawn)
inactive: dose: 100.0 mg/kg/injection, schedule: Q01DX001 (ip), vehicle: saline 109 % of control | [12] 91 % of control | [22] 91 % of control | dose: 200.0 mg/kg/injection, schedule: Q01DX001 (ip), vehicle: saline 100 % of control | [15] 110 % of control | [23] 97 % of control | dose: 400.0 mg/kg/injection, schedule: Q01DX001 (ip), vehicle: saline 97 % of control | [24] 99 % of control | [25] 98 % of control

Cc1c(C)c2nc3ccccc3nc2c2ccccc12
inactive: dose: 50.0 mg/kg/injection, schedule: Q01DX001 (ip), vehicle: Klucel (hydroxypropylcellulose) (HPC) 98 % of control | [6] 95 % of control | [7] 95 % of control

CC(C)OC(=O)C(=O)Nc1cccc(Cl)c1
inactive: [6] 108 % of control | [7] 95 % of control | [8] 95 % of control

O=c1[n-]cc(F)c(=O)[nH]1.O=c1[n-]cc(F)c(=O)[nH]1.[NH2-].[NH2-].[Pt+4]
inactive: dose: 6.25 mg/kg/injection, schedule: Q03HX024 (ip), vehicle: saline with Tween-80 97 % of control | dose: 12.5 mg/kg/injection, schedule: Q03HX024 (ip), vehicle: saline with Tween-80 101 % of control | dose: 25.0 mg/kg/injection, schedule: Q03HX024 (ip), vehicle: saline with Tween-80 99 % of control | dose: 50.0 mg/kg/injection, schedule: Q03HX024 (ip), vehicle: saline with Tween-80 118 % of control | [12] 115 % of control and 105 % of control | [22] 108 % of control and 92 % of control and 97 % of control | [15] 124 % of control and 114 % of control | [23] 93 % of control and 113 % of control and 97 % of control | [24] 109 % of control | [25] 120 % of control and 124 % of control and 101 % of control

N#C/C(=C\C1CCC(OCC2CCCCC2)CC1)C1CCC([N+](=O)[O-])CC1 (stereo not drawn)
inactive: dose: 25.0 mg/kg/injection, schedule: Q04DX002 (ip), vehicle: saline with Tween-80 97 % of control | dose: 50.0 mg/kg/injection, schedule: Q04DX002 (ip), vehicle: saline with Tween-80 102 % of control | [13] 100 % of control and 91 % of control

COc1cccc(C=Nc2ccc(N(C)C)cc2)c1O.COc1cccc(C=Nc2ccc(N(C)C)cc2)c1O.[Co]
inactive: dose: 50.0 mg/kg/injection, schedule: Q04DX003 (ip), vehicle: saline with Tween-80 88 % of control | [14] 88 % of control | [16] 98 % of control

CCN(CC[n+]1ccccc1)c1ccccc1 (tested in a mixture with another compound)
inactive: dose: 50.0 mg/kg/injection, schedule: Q01DX001 (ip), vehicle: saline 103 % of control

Cc1cc(N)n(C(N)=O)n1
inactive: [11] 102 % of control | [14] 106 % of control | [2] 110 % of control | [16] 107 % of control | [17] 108 % of control | [18] 109 % of control
